The term EC50 denotes the midpoint of the concentration-response curve. Broadly, the CC50 is the concentration at which the toxic effect on the cells reaches its halfway point. In general, bioavailability refers to dose-corrected exposure relative to a reference, in per cent. For orientation: AUC means the area under the concentration-time curve, a measure of exposure. One may read the clearance as the rate of elimination divided by the concentration. In general, half-life refers to the time in which the quantity being followed falls by half. One may read the share remaining as the share of the starting amount still present when the sample was taken. As usually defined, the Papp A→B is the apparent permeability from the apical to the basolateral side of a cell layer. Broadly, the solubility is the dissolved amount per volume that the medium holds.

Data set [1] relates to Hepatitis C virus. The data set is described as follows: microbe, parasite or virus in culture. It is filed as functional, organism-based, Hepacivirus hominis, subtype 1a, Huh-lunet.
Description: Antiviral activity against HCV-1a infected in human Huh-lunet cells after 4 days by luciferase based replicon assay
Data set [2] relates to Hepatitis C virus. The data set is described as follows: microbe, parasite or virus in culture. Type of data set: functional, organism-based, Hepacivirus hominis, genotype 1b, Huh-luc/neo-ET.
Description: Antiviral activity against HCV-1b infected human Huh-luc/neo-ET replicon cells after 72 hrs by luciferase based replicon assay
The nature of data set [3]: Cytotoxicity against human HuH7 cells assessed as GAPDH release. It is filed as cell-based, Huh-7.
Data set [4] in a line: Oral bioavailability in cynomolgus monkey at 0.5 mg/kg. The note with it: in vivo. It is filed as ADME, organism-based, Macaca fascicularis.
In data set [5] the test system is Cynomolgus monkey. The data set is described as follows: AUC (0 to infinity) in cynomolgus monkey at 0.5 mg/kg, po. Type of data set: ADME, organism-based, Macaca fascicularis, Plasma. The arrangement: time infinity, dose 0.5 mg/kg, route oral. The note with it: in vivo.
The test system of data set [6] is Cynomolgus monkey. The data set is described as follows: AUC (0 to infinity) in cynomolgus monkey at 0.5 mg/kg, iv. As to conditions: in vivo. Also on record: time infinity, dose 0.5 mg/kg, route intravenous. It is filed as ADME, organism-based, Macaca fascicularis, Plasma.
Data set [7] in a line: Clearance in cynomolgus monkey at 0.5 mg/kg, iv. Type of data set: ADME, organism-based, Macaca fascicularis. The arrangement: dose 0.5 mg/kg, route intravenous. The note with it: in vivo.
Data set [8] can be described thus: in vitro. The note with it: human, t1/2.
The nature of data set [9]: in vitro. The note with it: human.
Description: Metabolic stability in human liver microsomes assessed as compound remaining after 60 mins at 1 uM
The nature of data set [10]: in vitro. The note with it: rhesus monkey, microsomes.
Description: (§2) Metabolic stability in monkey liver microsomes assessed as half life at 5 uM
The nature of data set [11]: in vitro. The note with it: rhesus monkey, microsomes, Stability.
Description: (§3) Metabolic stability in monkey liver microsomes assessed as compound remaining after 60 mins at 5 uM
A short description of data set [12]: (§1) Oral bioavailability in cynomolgus monkey at 1 mg/kg. Type of data set: ADME, organism-based, Macaca fascicularis. The note with it: in vivo.
The nature of data set [13]: Clearance in cynomolgus monkey at 1 mg/kg, iv. Type of data set: ADME, organism-based, Macaca fascicularis. Also on record: dose 1 mg/kg, route intravenous. As to conditions: in vivo.
For data set [14] the following is noted: rhesus monkey, microsomes, 5 µM.
Description: as §2
The conditions of data set [15]: rhesus monkey, microsomes, 1 h, 5 µM.
Description: as §3
The test system of data set [16] is Cynomolgus monkey. As to conditions: in vivo, po, 1 mg/kg.
The subject of data set [17] is Cynomolgus monkey. The note with it: in vivo, iv, 1 mg/kg.
The nature of data set [18]: in vitro. As to conditions: human, Caco-2.
Description: Apparent permeability from apical side to basolateral side of human Caco-2 cells at 10 uM after 3 hrs
A short description of a further data set: physchem. As to conditions: aqueous medium, pH 7.5.
Data set [19] has as its system Cynomolgus monkey. The description is as §1. Type of data set: ADME, organism-based, Macaca fascicularis. As to conditions: in vivo.
Setting [20] is: Hepatitis C virus, subtype 1a, Huh-lunet, 96 h.
Setting [21] is: Hepatitis C virus, genotype 1b, Huh-luc/neo-ET, 72 h.

Molecules are shown by their SMILES.

Description for physchem: Aqueous solubility at pH 7.5

`CS(=O)(=O)Nc1ccc2c(c1)S(=O)(=O)N=C(C1=C(O)[C@H]3[C@H]4CC[C@H](C4)[C@H]3N(Cc3ccc(F)cc3)C1=O)N2`: the EC50 in the data set with Hepatitis C virus [1] (setting [20]) was determined as 2500 nM; in the data set with Hepatitis C virus [2] (setting [21]) it was 270 nM. In data set [3], the CC50 is greater than 33000 nM. Also, the bioavailability in [4] turned out to be 26%. Moreover, the values for the AUC in the data set with Cynomolgus monkey [5] and with Cynomolgus monkey [6] were 409 ng·h/mL and 1570 ng·h/mL, respectively. Also, the clearance in [7] came to 5.7 mL/min/kg. This compound had a half-life at 1 µM in the data set “in vitro [8]” (microsomes) greater than 1 h. The same compound gave a share remaining at 1 h, 1 µM in the data set “in vitro [9]” (microsomes) of 75%. In addition, the half-life at 5 µM in “in vitro [10]” is greater than 1 h. The share remaining at 1 h, 5 µM in “in vitro [11]” was 95%.

Turning to `CS(=O)(=O)Nc1ccc2c(c1)S(=O)(=O)N=C(C1=C(O)[C@@H]3[C@H]4CC[C@H](C4)[C@@H]3N(Cc3ccc(F)c(F)c3)C1=O)N2`, the figures for the EC50 in the data set on Hepatitis C virus [1] (setting [20]) and in the data set on Hepatitis C virus [2] (setting [21]) were 37 nM and 7 nM, respectively. Also, in data set [12], the bioavailability is 45%. For the same compound, the clearance in data set [13] was determined as 0.37 mL/min/kg. In data set [14], this compound registered a t1/2 of 1 h. The compound further yielded a Stability in data set [15] of 95%. Besides, the figures for the AUC with Cynomolgus monkey [16] and in the data set on Cynomolgus monkey [17] were 20300 ng·h/mL and 44800 ng·h/mL, respectively. In “in vitro [8]” (liver microsomes), the half-life at 1 µM is greater than 1 h. This compound also displayed an amount remaining at 1 h, 1 µM in “in vitro [9]” (liver microsomes) of 100%. For the same compound, the apical-to-basolateral permeability (Papp A→B) at 3 h, 10 µM in the data set “in vitro [18]” amounted to 1.05 ×10⁻⁶ cm/s. In the data set “physchem”, this compound yielded a solubility greater than 100 µM.

In the case of `CS(=O)(=O)Nc1ccc2c(c1)S(=O)(=O)N=C(C1=C(O)C3C4CCC(C4)C3N(Cc3ccc(F)cc3)C1=O)N2` (racemic; 2b), the figures for the EC50 in the data set on Hepatitis C virus [1] (huh-lunet) and with Hepatitis C virus [2] (huh-luc/neo-et) were 91 nM and 2 nM, respectively. In the data set on Cynomolgus monkey [19], this compound came in with an F of 25%. The Stability in [15] is 92%. In addition, the figures for the AUC in the data set on Cynomolgus monkey [16] and with Cynomolgus monkey [17] were 1350 ng·h/mL and 5500 ng·h/mL, respectively. The fraction remaining at 1 h, 1 µM in “in vitro [9]” (microsomes) worked out at 73%.

Turning to `CS(=O)(=O)Nc1ccc2c(c1)S(=O)(=O)N=C(C1=C(O)[C@H]3[C@@H]4CC[C@@H](C4)[C@H]3N(Cc3ccc(F)cc3)C1=O)N2`, the figures for the EC50 in the data set on Hepatitis C virus [1] (setting [20]) and in the data set on Hepatitis C virus [2] (setting [21]) were 5400 nM and 550 nM, respectively. Further, in data set [3], the CC50 was greater than 33000 nM. The bioavailability in [4] was 12%. Besides, the results for the AUC with Cynomolgus monkey [5] and in the data set on Cynomolgus monkey [6] were 163 ng·h/mL and 1390 ng·h/mL, respectively. In data set [7], this compound had a clearance of 6.5 mL/min/kg. In “in vitro [8]” (microsomes), this compound showed a half-life at 1 µM of 0.333 h. The compound also returned a half-life at 5 µM in the data set “in vitro [10]” greater than 1 h. In “in vitro [11]”, this compound returned a fraction remaining at 1 h, 5 µM of 58%.

The record behind these values is ChEMBL document CHEMBL1154345, “Discovery of tricyclic 5,6-dihydro-1H-pyridin-2-ones as novel, potent, and orally bioavailable inhibitors of HCV NS5B polymerase” (Bioorg Med Chem Lett, 2009).
